Experimental data published in ChEMBL document CHEMBL1138214 (J Med Chem, 2006).
Active and inactive are the calls of the source. The calls are words filed in the database; no cut-off is given here.

Columns and labels:
[1] = biological target: T1, C-X-C chemokine receptor type 2 (Homo sapiens, UniProt P25025); experiment: Displacement of [125I]hCXCL8 from human CXCR2 receptor expressed in BaF3 cells; type: cell-based
T1 sequence (P25025 whole entry): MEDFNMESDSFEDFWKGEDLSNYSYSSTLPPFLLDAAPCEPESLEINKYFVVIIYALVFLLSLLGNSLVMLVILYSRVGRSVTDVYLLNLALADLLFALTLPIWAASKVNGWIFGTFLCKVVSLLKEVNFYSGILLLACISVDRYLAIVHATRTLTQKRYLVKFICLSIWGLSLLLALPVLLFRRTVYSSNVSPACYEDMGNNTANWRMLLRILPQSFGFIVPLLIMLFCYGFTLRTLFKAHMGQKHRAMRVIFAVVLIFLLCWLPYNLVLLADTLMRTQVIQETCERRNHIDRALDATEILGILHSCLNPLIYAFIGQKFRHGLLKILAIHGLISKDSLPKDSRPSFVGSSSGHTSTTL

[2] = AUC (0-6h) in rat at 10 mg/kg, po; type: ADME, organism-based; parameters: time < 6 hr, dose 10 mg/kg, route oral; conditions: plasma
[3] = biological target: T2, C-X-C chemokine receptor type 1 (Homo sapiens, UniProt P25024); experiment: Displacement of [125I]hCXCL8 from human CXCR1 receptor expressed in BaF3 cells; type: cell-based
T2 sequence (P25024 whole entry): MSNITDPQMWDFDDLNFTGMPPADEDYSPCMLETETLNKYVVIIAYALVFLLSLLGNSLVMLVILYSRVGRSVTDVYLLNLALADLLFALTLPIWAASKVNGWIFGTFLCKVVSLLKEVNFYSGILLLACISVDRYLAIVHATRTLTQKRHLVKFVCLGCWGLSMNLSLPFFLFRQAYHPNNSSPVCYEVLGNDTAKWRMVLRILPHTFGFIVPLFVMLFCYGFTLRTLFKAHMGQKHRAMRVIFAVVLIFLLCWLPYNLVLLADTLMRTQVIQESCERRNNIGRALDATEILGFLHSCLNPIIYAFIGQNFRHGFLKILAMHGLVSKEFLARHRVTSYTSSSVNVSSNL

[4] = biological target: T3, Interleukin-8 receptors, CXCR1/CXCR2 (Homo sapiens, UniProt P25025+P25024); experiment: Inhibition of CXCL8-induced human neutrophil chemotaxis; type: functional
T3 sequence (P25025 whole entry): T1 sequence (P25025 whole entry)
T3 sequence (P25024 whole entry): T2 sequence (P25024 whole entry)

[5] = biological target: Interleukin-8 receptors, CXCR1/CXCR2 (Homo sapiens) (UniProt P25025+P25024); experiment: Selectivity for CXCR2 over CXCR1; type: protein assay
[6] = biological target: T4, C-X-C chemokine receptor type 1 (Homo sapiens) (UniProt P25024); experiment: Displacement of [125I]hCXCL8 from human CXCR1 receptor expressed in BaF3 cells at >10000 nM; type: cell-based
T4 sequence (whole entry): T2 sequence (P25024 whole entry)

[7] = biological target: T5, C-X-C chemokine receptor type 3 (Homo sapiens) (UniProt P49682); experiment: Inhibition of CXCR3 receptor at 2 to 20 uM
T5 sequence (whole entry): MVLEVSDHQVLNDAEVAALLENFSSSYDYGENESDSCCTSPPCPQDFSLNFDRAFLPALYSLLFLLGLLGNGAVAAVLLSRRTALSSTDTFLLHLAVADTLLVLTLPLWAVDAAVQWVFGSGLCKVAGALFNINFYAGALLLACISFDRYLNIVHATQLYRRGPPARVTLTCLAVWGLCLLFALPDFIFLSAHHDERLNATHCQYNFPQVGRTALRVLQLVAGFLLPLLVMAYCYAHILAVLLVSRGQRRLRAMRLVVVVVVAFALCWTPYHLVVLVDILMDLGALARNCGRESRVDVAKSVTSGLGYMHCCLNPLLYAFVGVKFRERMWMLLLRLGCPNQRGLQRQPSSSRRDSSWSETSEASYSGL

[8] = biological target: T6, fMet-Leu-Phe receptor (Homo sapiens) (UniProt P21462); experiment: Inhibition of fMLP-induced human neutrophil chemotaxis; type: functional
T6 sequence (whole entry): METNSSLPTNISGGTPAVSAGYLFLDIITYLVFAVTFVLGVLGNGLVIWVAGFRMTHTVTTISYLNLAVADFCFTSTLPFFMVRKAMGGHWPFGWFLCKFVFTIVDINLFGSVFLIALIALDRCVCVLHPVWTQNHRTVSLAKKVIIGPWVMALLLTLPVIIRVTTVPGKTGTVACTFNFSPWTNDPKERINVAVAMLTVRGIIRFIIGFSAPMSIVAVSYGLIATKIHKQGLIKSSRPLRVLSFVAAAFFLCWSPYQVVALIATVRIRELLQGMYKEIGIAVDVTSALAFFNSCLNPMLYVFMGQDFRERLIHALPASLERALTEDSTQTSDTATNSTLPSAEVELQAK

[9] = biological target: C-C chemokine receptor type 5 (Homo sapiens) (UniProt P51681); experiment: Inhibition of CCR5 receptor at 2 to 20 uM
[10] = biological target: T7, C5a anaphylatoxin chemotactic receptor 1 (Homo sapiens) (UniProt P21730); experiment: Inhibition of C5a-induced human neutrophil chemotaxis; type: functional
T7 sequence (whole entry): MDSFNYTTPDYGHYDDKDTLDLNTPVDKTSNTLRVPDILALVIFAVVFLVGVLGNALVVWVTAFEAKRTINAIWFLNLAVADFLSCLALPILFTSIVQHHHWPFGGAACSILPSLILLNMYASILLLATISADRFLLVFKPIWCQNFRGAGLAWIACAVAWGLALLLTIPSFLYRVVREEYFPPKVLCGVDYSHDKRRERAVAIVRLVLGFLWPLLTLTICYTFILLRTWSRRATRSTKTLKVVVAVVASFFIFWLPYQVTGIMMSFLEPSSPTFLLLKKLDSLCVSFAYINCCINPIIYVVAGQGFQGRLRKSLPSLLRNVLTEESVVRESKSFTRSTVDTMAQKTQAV

Sequence of C-C chemokine receptor type 5 (Homo sapiens) (P51681 whole entry, looked up): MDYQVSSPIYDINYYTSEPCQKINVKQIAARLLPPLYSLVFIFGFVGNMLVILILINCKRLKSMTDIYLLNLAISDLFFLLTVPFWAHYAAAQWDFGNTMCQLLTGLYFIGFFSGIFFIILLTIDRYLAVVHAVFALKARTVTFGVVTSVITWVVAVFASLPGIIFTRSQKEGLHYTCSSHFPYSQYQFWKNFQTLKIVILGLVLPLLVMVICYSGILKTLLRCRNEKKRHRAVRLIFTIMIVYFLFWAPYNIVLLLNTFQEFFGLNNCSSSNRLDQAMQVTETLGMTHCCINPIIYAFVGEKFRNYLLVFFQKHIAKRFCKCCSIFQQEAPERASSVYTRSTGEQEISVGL

| IC50 [1] [nM] | AUC(0-t) at 6 h [2] [µM·h] | IC50 [3] [nM] | SMILES | further results |
| --- | --- | --- | --- | --- |
| 5.3 | 14.1 | 235 | CC[C@@H](Nc1c(Nc2cccc(C(=O)N(C)C)c2O)c(=O)c1=O)c1ccc(C)s1 | – |
| 4.9 | 18.3 | 197 | CC[C@@H](Nc1c(Nc2cccc(C(=O)N(C)C)c2O)c(=O)c1=O)c1cccc(F)c1 | – |
| 6 | 2.5 | 81 | CC[C@@H](Nc1c(Nc2cccc(C(=O)N(C)C)c2O)c(=O)c1=O)c1cccs1 | – |
| – | 6.4 | 910 | CCC(CC)Nc1c(Nc2cccc(C(=O)N(C)C)c2O)c(=O)c1=O | – |
| 5 | 31.7 | 145 | CC[C@@H](Nc1c(Nc2cccc(C(=O)N(C)C)c2O)c(=O)c1=O)c1ccc2c(c1)OCO2 | – |
| 5.4 | 34 | 775 | Cc1ccc([C@@H](C)Nc2c(Nc3cccc(C(=O)N(C)C)c3O)c(=O)c2=O)o1 | IC50 [4]: 251 nM; Ratio IC50 [5]: > 100 |
| 6.8 | 17.4 | 254 | CC[C@@H](Nc1c(Nc2cccc(C(=O)N(C)C)c2O)c(=O)c1=O)c1ccccc1 | IC50 [4]: 398 nM |
| 236 | – | – | CN(C)C(=O)c1cccc(Nc2c(NCc3ccccc3)c(=O)c2=O)c1O | Activity [6]: inactive |
| – | 49 | – | CC[C@@H](Nc1c(Nc2cccc(C(=O)N(C)C)c2O)c(=O)c1=O)c1ccc(C)o1 [NAVARIXIN ANHYDROUS] | inhibition [7]: < 15%; Activity [8]: inactive; inhibition [9]: < 15%; Activity [10]: inactive |
| – | – | 3060 | C[C@@H](Nc1c(Nc2cccc(C(=O)N(C)C)c2O)c(=O)c1=O)c1ccccc1 | – |
| 234 | 1 | – | CC[C@H](Nc1c(Nc2cccc(C(=O)N(C)C)c2O)c(=O)c1=O)c1ccccc1 | Activity [6]: inactive |
| 3.8 | 1.4 | 26 | CC[C@@H](Nc1c(Nc2cccc(C(=O)N(C)C)c2O)c(=O)c1=O)c1ccco1 | – |
| – | – | – | C[C@H](Nc1c(Nc2cccc(C(=O)N(C)C)c2O)c(=O)c1=O)c1ccccc1 | Activity [6]: inactive |

| SMILES | IC50 [1] [nM] | AUC(0-t) at 6 h [2] [µM·h] | IC50 [3] [nM] | further results |
| --- | --- | --- | --- | --- |
| Cc1ccc([C@H](Nc2c(Nc3cccc(C(=O)N(C)C)c3O)c(=O)c2=O)C(C)(C)C)o1 | 3.8 | 2.6 | 11 | – |
| Cc1ccc([C@H](Nc2c(Nc3cccc(C(=O)N(C)C)c3O)c(=O)c2=O)C2CC2)o1 | 3.6 | 1.4 | 55 | – |
| Cc1ccc([C@H](Nc2c(Nc3cccc(C(=O)N(C)C)c3O)c(=O)c2=O)C(C)C)o1 | 6.2 | 3.2 | 34 | – |
